Data set [1] concerns mouse macrophage cell line RAW264.7.
For data set [2], the system named is target cells 195M (MAGED4B) and C666.1F (FJX1).
Protocol: The cytotoxic ELISPOT assay was used to study the response of peptide-pulsed CTLs derived from the patients to target cell lines overexpressing the target antigens. CTLs were co-cultured with target cells, where this culture was re-suspended in complete culture media supplemented with IL-7 and interleukin 2 (IL-2) proteins and applied to IFNγ and granzyme B ELISPOT plates. The cell suspension was further incubated to allow the interaction between CTLs and target cell line before determining the potential killing ability of CTLs against FJX1 and MAGED4b expressing target cells.
Dendritic cells from patients were isolated and subsequently used as antigen presenting cells. Briefly, PBMCs were re-suspended in macrophage-serum free media (M-SFM) (Gibco, Thermo Fisher, MA, USA), seeded in a 6-well plate and incubated for 1 hour at 37° C. After incubation, non-adherent cells from PBMCs were collected, rinsed in HBSS and then re-suspended in complete culture media contained 10 ng/ml IL-7. Approximately 2-5×10^5 cells per well were seeded into round bottom 96-well plates. Cells were then incubated for 2-5 days at 37° C. for T cell expansion with the addition of 50 μg/ml of peptides. The adherent cells resulting from the incubation, were cultured at 37° C. for 2-5 days in M-SFM in the presence of 100 ng/ml GM-CSF and 25 ng/ml IL-4 to induce differentiation of dendritic cells (DCs). […]
A further data set concerns HNSCC. Particulars: cited from earlier work.
The subject of data set [3] is recurrent or metastatic HNSCC. Particulars: human, in vivo; cited from earlier work.

This is an account of results in patent publication US11260118B2, “Immunogenic peptide composition” (Cancer Research Malaysia, priority 2017, dated 2022).

Where no end group is shown, it is not given here.

In the case of RLSLLLVIL [M6], in data set [1], the “degree of inflammation / iNOS accumulation” value is “low”.

Consider SLYNTYATL [HIV peptide], for which the “IFNγ and granzyme B secretion / cytotoxic T cell response after in vitro peptide stimulation” value in data set [2] is “induces increased levels of IFNγ and Granzyme B secretion”.

Turning to WLLALGSLLAL [F1, WLLALGSLLAL], in data set [1], the “degree of inflammation / iNOS accumulation” value is recorded as “low” and the “production of nitrite, fold lower than LPS positive control” value is 10 fold.

Consider nivolumab, for which the “overall survival rate of HNSCC patients” value in the data set with HNSCC (16% in standard therapy group) is on record as 36%. Moreover, in the data set on HNSCC (human, in vivo), the “grade 3 or grade 4 events versus standard therapy” value is reported as “fewer grade 3 or grade 4 events”, the “response rate of HNSCC patients” value is on record as 13% and the “survival longer than standard therapy group” value was 2.4 months.

Turning to pembrolizumab, the “objective response rate (complete or partial response of tumour size reduction)” value in data set [3] is given as 16%.
